This note sets out measurements from ChEMBL document CHEMBL4513141, “CO-ADD screening of NIH (USA) - Clinical Collection” (2021).

Assay [1] deals with HEK293. The experiment in a line: cells. It is filed as functional, Homo sapiens, ATCC CRL1573. The conditions noted are these: Homo sapiens, ATCC CRL1573, HEK293; ASSAY_TEST Inhibition of Cell Viability; detection method Resazurin; Fluorescence (ex560/em590); MEDIA DMEM with 10% FBS; plate type 384well; TC; CORNING #3712; time 18 hr. In general terms: Alamar Blue is a resazurin reagent that responds to reducing activity.

In assay [2] the test system is Cryptococcus neoformans.
Description: Antifungal activity against Cryptococcus neoformans H99 ATCC 208821 (CO-ADD:FG_002); MIC in YNB media using NBS plates, by Resazurin OD(600-570)
The test system of assay [3] is Staphylococcus aureus. The assay is described as follows: microbe, parasite or virus in culture. Conditions: ATCC 43300, 18 h, ASSAY_TEST Inhibition of Bacterial Growth, detection method Absorption (OD600), MEDIA CAMHB, plate type 384well, NBS, CORNING #3640.
Description: Antibacterial activity against Staphylococcus aureus MRSA ATCC 43300 (CO-ADD:GP_020); MIC in CAMBH media, using NBS plates, by OD(600)
The subject of assay [4] is Escherichia coli. The assay is described as follows: microbe, parasite or virus in culture. Conditions: ATCC 25922, 18 h, ASSAY_TEST Inhibition of Bacterial Growth, detection method Absorption (OD600), MEDIA CAMHB, plate type 384well, NBS, CORNING #3640.
Description: Antibacterial activity against Escherichia coli ATCC 25922 (CO-ADD:GN_001); MIC in CAMBH media using NBS plates, by OD(600)
Assay [5] concerns Klebsiella pneumoniae. The experiment in a line: microbe, parasite or virus in culture. The conditions noted are these: ATCC 700603, 18 h, ASSAY_TEST Inhibition of Bacterial Growth, detection method Absorption (OD600), MEDIA CAMHB, plate type 384well, NBS, CORNING #3640.
Description: Antibacterial activity against Klebsiella pneumoniae MDR ATCC 70063 (CO-ADD:GN_003); MIC in CAMBH media using NBS plates, by OD(600)
Assay [6] relates to Pseudomonas aeruginosa. The assay is described as follows: microbe, parasite or virus in culture. Conditions: ATCC 27853, 18 h, ASSAY_TEST Inhibition of Bacterial Growth, detection method Absorption (OD600), MEDIA CAMHB, plate type 384well, NBS, CORNING #3640.
Description: Antibacterial activity against Pseudomonas aeruginosa ATCC 27853 (CO-ADD:GN_042); MIC in CAMBH media using NBS plates, by OD(600)
The subject of assay [7] is Acinetobacter baumannii. The experiment in a line: microbe, parasite or virus in culture. The conditions noted are these: ATCC 19606, 18 h, ASSAY_TEST Inhibition of Bacterial Growth, detection method Absorption (OD600), MEDIA CAMHB, plate type 384well, NBS, CORNING #3640.
Description: Antibacterial activity against Acinetobacter baumannii ATCC 19606 (CO-ADD:GN_034); MIC in CAMBH media using NBS plates, by OD600
Assay [8] deals with Candida albicans. The experiment in a line: microbe, parasite or virus in culture. Conditions: ATCC 90028, ASSAY_TEST Inhibition of Fungal Growth, detection method Absorption (OD530), plate type 384well, NBS, CORNING #3640.
Description: Antifungal activity against Candida albicans ATCC 90028 (CO-ADD:FG_001); MIC in YNB media using NBS plates, by OD630

One may read the CC50 as the concentration at which the toxic effect on the cells reaches its halfway point. A low value points to harm at low concentration.

In brackets after ≈: the same amount, converted by molar mass. Some results are limits rather than exact numbers.

Turning to `C=CC1=C(C(=O)O)N2C(=O)[C@@H](NC(=O)/C(=N/OCC(=O)O)c3csc(N)n3)[C@H]2SC1`, in assay [1], the 50% cytotoxic concentration (CC50) was over 10 µM. In addition, the MIC is over 10 µM in assay [2]; over 10 µM in assay [3]; 2.5 µM (≈ 1.13 µg/mL) in assay [4]; over 10 µM in assay [5]; over 10 µM in assay [6]; over 10 µM in assay [7]. The same compound showed an MIC in assay [8] of over 10 µM.

`Nc1nc(=O)[nH]cc1F` [FLUCYTOSINE] came in with a CC50 in assay [1] of over 10 µM. For the same compound, the MIC in assay [2] is 0.625 µM (≈ 0.0807 µg/mL); in assay [3], over 10 µM; in assay [4], over 10 µM; in assay [5], over 10 µM; in assay [6] it was over 10 µM; in assay [7], over 10 µM. In assay [8], this compound gave an MIC of 0.625 µM (≈ 0.0807 µg/mL).

In assay [1], `C[C@H]1COc2c(C3(N)CC3)c(F)cc3c(=O)c(C(=O)O)cn1c23` [PAZUFLOXACIN] showed a CC50 of over 10 µM. Moreover, the MIC in assay [2] is over 10 µM; in assay [3], 0.625 µM (≈ 0.199 µg/mL); in assay [4] it was at most 0.0781 µM; in assay [5], 1.25 µM (≈ 0.398 µg/mL); in assay [6], 1.25 µM (≈ 0.398 µg/mL); in assay [7] it was 2.5 µM (≈ 0.796 µg/mL). In addition, the MIC in assay [8] was over 10 µM.

`Clc1ccc(CO/N=C(\Cn2ccnc2)c2ccc(Cl)cc2Cl)c(Cl)c1` [OXICONAZOLE NITRATE]: the CC50 in assay [1] was over 10 µM. Further, the MIC was at most 0.0781 µM in assay [2]; over 10 µM in assay [3]; over 10 µM in assay [4]; over 10 µM in assay [5]; over 10 µM in assay [6]; over 10 µM in assay [7]. The MIC in assay [8] was at most 0.0781 µM.

Consider `COc1ccc2[nH]c([S+]([O-])Cc3ncc(C)c(OC)c3C)nc2c1` (stereo not given) [OMEPRAZOLE MAGNESIUM], for which, in assay [1], the cytotoxic concentration (CC50) is over 10 µM. The MIC in assay [2], in assay [3], in assay [4], in assay [5], in assay [6] and in assay [7] was over 10 µM in each case. The same compound returned an MIC in assay [8] of over 10 µM.

In the case of `C=CC1=C(C(=O)O)N2C(=O)[C@@H](NC(=O)/C(=N\O)c3csc(N)n3)[C@H]2SC1`, the CC50 in assay [1] is over 10 µM. Further, the MIC was over 10 µM in assay [2]; 5 µM (≈ 1.98 µg/mL) in assay [3]; 2.5 µM (≈ 0.989 µg/mL) in assay [4]; 10 µM (≈ 3.95 µg/mL) in assay [5]; over 10 µM in assay [6]; over 10 µM in assay [7]. This compound displayed an MIC in assay [8] of over 10 µM.

Take `CC(=O)NC[C@H]1CN(c2ccc(N3CCOCC3)c(F)c2)C(=O)O1` [LINEZOLID]: in assay [1], the CC50 stood at 4.46 µM. Besides, the MIC was over 10 µM in assay [2]; 2.5 µM (≈ 0.843 µg/mL) in assay [3]; over 10 µM in assay [4]; over 10 µM in assay [5]; over 10 µM in assay [6]; over 10 µM in assay [7]. This compound yielded an MIC in assay [8] of over 10 µM.

`CN1CCN(c2c(F)cc3c(=O)c(C(=O)O)cn4c3c2SCC4)CC1` came in with a CC50 in assay [1] of over 10 µM. The MIC in assay [2] was over 10 µM; in assay [3], 2.5 µM (≈ 0.909 µg/mL); in assay [4] it was 1.25 µM (≈ 0.454 µg/mL); in assay [5], over 10 µM; in assay [6] it was 10 µM (≈ 3.63 µg/mL); in assay [7] it was over 10 µM. In assay [8], the MIC is over 10 µM.

With `CC1(C)SC2C(NC(=O)COc3ccccc3)C(=O)N2C1C(=O)O` (stereo not given), the CC50 in assay [1] was over 10 µM. Moreover, the MIC in assay [2], in assay [3], in assay [4], in assay [5], in assay [6] and in assay [7] was over 10 µM in each case. This compound also displayed an MIC in assay [8] of over 10 µM.

On to `CCCCCCNC(=O)n1cc(F)c(=O)[nH]c1=O` [CARMOFUR], for which the CC50 in assay [1] is over 10 µM. In addition, the MIC in assay [2] is 5 µM (≈ 1.29 µg/mL); in assay [3], 2.5 µM (≈ 0.643 µg/mL); in assay [4], over 10 µM; in assay [5], over 10 µM; in assay [6], over 10 µM; in assay [7], over 10 µM. The same compound came in with an MIC in assay [8] of over 10 µM.
